Results: PubChem BioAssay AID743317 (Broad Institute, 2014)
Results filed as inconclusive are left out. Activity calls are given as the source filed them.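 How the source made its calls: active means fitted curve reaches 40% activation at or below the top valid dose, and every replicate test is called active; inconclusive means replicate tests disagree, some active and some inactive; inactive means all replicate tests inactive, including activity in the wrong direction.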

Target: Endoplasmic reticulum aminopeptidase 1 (Homo sapiens) (UniProt Q9NZ08)
Sequence (Q9NZ08 whole entry, looked up): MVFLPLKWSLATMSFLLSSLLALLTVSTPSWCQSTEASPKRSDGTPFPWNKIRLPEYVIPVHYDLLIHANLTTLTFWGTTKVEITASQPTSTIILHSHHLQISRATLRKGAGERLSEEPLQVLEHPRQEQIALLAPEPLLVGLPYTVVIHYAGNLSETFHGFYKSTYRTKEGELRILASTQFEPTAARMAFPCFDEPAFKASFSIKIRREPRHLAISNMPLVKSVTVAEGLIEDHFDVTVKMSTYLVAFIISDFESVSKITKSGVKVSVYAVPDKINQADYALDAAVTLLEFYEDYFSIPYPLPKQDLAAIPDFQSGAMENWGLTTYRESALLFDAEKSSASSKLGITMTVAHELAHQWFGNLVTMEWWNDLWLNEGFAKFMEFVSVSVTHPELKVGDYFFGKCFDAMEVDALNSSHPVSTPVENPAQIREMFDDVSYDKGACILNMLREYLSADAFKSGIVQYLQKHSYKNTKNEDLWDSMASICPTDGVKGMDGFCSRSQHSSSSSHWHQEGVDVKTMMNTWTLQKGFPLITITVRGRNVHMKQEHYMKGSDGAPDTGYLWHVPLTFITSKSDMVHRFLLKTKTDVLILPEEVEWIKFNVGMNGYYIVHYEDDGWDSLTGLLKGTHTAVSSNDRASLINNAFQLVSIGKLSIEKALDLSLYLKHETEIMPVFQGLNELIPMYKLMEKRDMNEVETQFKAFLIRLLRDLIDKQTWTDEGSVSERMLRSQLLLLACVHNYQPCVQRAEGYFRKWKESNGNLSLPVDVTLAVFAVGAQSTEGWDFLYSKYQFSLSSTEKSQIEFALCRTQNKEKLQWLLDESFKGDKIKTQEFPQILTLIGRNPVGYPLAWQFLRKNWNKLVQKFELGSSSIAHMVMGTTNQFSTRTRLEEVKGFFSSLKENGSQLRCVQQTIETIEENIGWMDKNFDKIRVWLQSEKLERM
Test: ERAP1 aminopeptidase activity change, dose response, biochemical, fluorescence, cherry-pick (AID 743317)
Conditions: ERAP1 enzyme, Leu-AMC fluorescence, 60 min

Row | Compound | AC40 | other results
1 | CCN1CCN(Cc2c(O)ccc3c(C)cc(=O)oc23)CC1 |  | activity increase (activation) (at 11 µM (top of the series)): -54.6% (inactive)
2 | C[C@@H]1CCCCO[C@@H](CN(C)C)[C@@H](C)CN([C@H](C)CO)C(=O)c2cc(NS(=O)(=O)c3ccc(Cl)cc3)ccc2O1 | 0.381 µM | 
3 | CCn1cc(CN2CCCC(C(=O)Nc3ccc(-c4nc5ccccc5[nH]4)cc3)C2)c(C)n1 (centres undefined) | 3.5 µM | 
4 | Cc1ccc2nc3c(cc(C(=O)NCc4ccccc4)c(=N)n3CCCn3ccnc3)c(=O)n2c1 | 8.84 µM | 
5 | Cc1noc(C)c1NC(=O)N(C)C[C@@H]1Oc2c(NC(=O)Nc3ccc(F)cc3)cccc2C(=O)N([C@H](C)CO)C[C@@H]1C | 5.64 µM | 
6 | CNC[C@H]1OCCCC[C@@H](C)Oc2ccc(NS(=O)(=O)c3ccc(C)cc3)cc2C(=O)N([C@@H](C)CO)C[C@H]1C | 3.42 µM | 
7 | C[C@H](CO)N1C[C@H](C)[C@H](CN(C)CC2CCCCC2)Oc2c(NC(=O)Nc3ccc4c(c3)OCO4)cccc2C1=O | 2.55 µM | 
8 | Cc1cc(=O)oc2cc(NS(=O)(=O)c3ccc(F)cc3)ccc12 |  | activity increase (activation) (at 11 µM (top of the series)): -52% (inactive)
9 | O=C(C[C@H]1CC[C@H]2[C@@H](COC[C@@H](O)CN2C(=O)Nc2cccc(Cl)c2)O1)N1CCCCC1 | 0.211 µM | 
10 | CCN1[C@H](C(=O)Nc2nccs2)[C@@H](CO)[C@@H]2Cn3c(ccc(/C=C/c4ccccc4)c3=O)[C@@H]21 |  | activity increase (activation) (at 10 µM (top of the series)): -13.4% (inactive)
11 | CCCNC(=O)C[C@@H]1CC[C@@H]2[C@H](COC[C@H](O)CN2C(=O)Nc2cccc(Cl)c2)O1 | 6.77 µM | 
12 | CCCNC(=O)C[C@H]1CC[C@@H]2[C@H](COC[C@H](O)CN2C(=O)Nc2cccc(Cl)c2)O1 | 3.41 µM | 
13 | CCc1cc(=O)oc2c(CN3CCN(C)CC3)c(O)ccc12 |  | activity increase (activation) (at 11 µM (top of the series)): -65.3% (inactive)
14 | NC(=NCCc1c[nH]c2ccccc12)NS(=O)(=O)c1cc(F)ccc1F |  | activity increase (activation) (at 11 µM (top of the series)): -59.5% (inactive)
15 | COC(=O)Cc1c(C)c2ccc(O)c(CNCc3ccc(OC)c(OC)c3)c2oc1=O |  | activity increase (activation) (at 5.6 µM (top of the series)): -74.1% (inactive)
16 | Cc1c(CC(=O)N2CCN(C(=O)C3COc4ccccc4O3)CC2)c(=O)oc2cc(O)c(Cl)cc12 (centres undefined) |  | activity increase (activation) (at 11 µM (top of the series)): -33.4% (inactive)
17 | O=c1ccc2cc(O[C@@H]3O[C@H](CO)[C@@H](O)[C@H](O)[C@H]3O)c(O)cc2o1 |  | activity increase (activation) (at 11 µM (top of the series)): -98.9% (inactive)
18 | Cc1noc(C)c1NC(=O)Nc1ccc2c(c1)C(=O)N([C@H](C)CO)C[C@@H](C)[C@@H](CN(C)Cc1ccc(C(F)(F)F)cc1)OCCCC[C@@H](C)O2 | 2.77 µM | 
19 | COc1ccc(C2=NN(c3ccc(C(=O)O)cc3)C(c3ccc(OC)c(OC)c3)C2)cc1 (centres undefined) | 0.442 µM | 
20 | CSC1=NS(=O)(=O)c2c(C)nn(C)c2S1 |  | activity increase (activation) (at 11 µM (top of the series)): -42.5% (inactive)
21 | C[C@H]1CN([C@@H](C)CO)C(=O)c2cccc(NC(=O)Nc3ccc(F)cc3)c2O[C@@H]1CN(C)C(=O)Nc1ccc2c(c1)OCO2 | 5.56 µM | 
22 | CCCCc1cc(=O)oc2cc(O)ccc12 |  | activity increase (activation) (at 11 µM (top of the series)): -62.4% (inactive)
23 | C[C@@H]1CCCCO[C@@H](CN(C)C(=O)CCC(F)(F)F)[C@@H](C)CN([C@@H](C)CO)C(=O)c2cc(NS(=O)(=O)c3ccccc3)ccc2O1 | 1.73 µM | 
24 | CCc1c(C)c2cc(Cl)c(O)c(CN(CC)CC)c2oc1=O |  | activity increase (activation) (at 11 µM (top of the series)): -62.3% (inactive)
25 | C[C@H](CO)N1C[C@H](C)[C@H](CN(C)C)Oc2c(NC(=O)Nc3ccc(C(F)(F)F)cc3)cccc2C1=O | 0.935 µM | 

Row | Compound | AC40 | other results
26 | COc1ccc(CN(C)C[C@@H]2OCCCC[C@H](C)Oc3ccc(NS(=O)(=O)c4cccs4)cc3C(=O)N([C@@H](C)CO)C[C@@H]2C)cc1 | 1.19 µM | 
27 | Cc1ccc(-c2cc(C(=O)N3CCCC3)c3ccccc3n2)s1 | 6.45 µM | 
28 | CN1[C@@H]2c3ccc(/C=C/c4ccccc4)c(=O)n3C[C@@H]2[C@@H](CO)[C@@H]1C(=O)NC1CCCC1 |  | activity increase (activation) (at 11 µM (top of the series)): -14.6% (inactive)
29 | C[C@@H]1CCCCO[C@@H](CN(C)C)[C@@H](C)CN([C@@H](C)CO)C(=O)c2cc(NS(=O)(=O)c3ccc(Cl)cc3)ccc2O1 | 0.636 µM | 
30 | Cc1c(C)c2ccc(O)c(CN3CCCC3)c2oc1=O |  | activity increase (activation) (at 11 µM (top of the series)): -57% (inactive)
31 | CCCN(C)C[C@@H]1OCCCC[C@@H](C)Oc2ccc(NS(=O)(=O)c3ccc(OC)cc3)cc2C(=O)N([C@H](C)CO)C[C@@H]1C | 0.812 µM | 
32 | CCCN(C)C[C@@H]1OCCCC[C@@H](C)Oc2ccc(NS(=O)(=O)c3cccs3)cc2C(=O)N([C@H](C)CO)C[C@@H]1C | 0.107 µM | 
33 | COc1ccc(NC(=O)Nc2ccc3c(c2)C(=O)N([C@H](C)CO)C[C@@H](C)[C@@H](CN(C)Cc2ccc(C(=O)O)cc2)OCCCC[C@@H](C)O3)cc1 | 0.652 µM | 
34 | CCOC(=O)C[n+]1ccc2c([nH]c3ccccc32)c1C |  | activity increase (activation) (at 11 µM (top of the series)): -38.3% (inactive)
35 | COc1ccc(CN(C)C[C@@H]2OCCCC[C@@H](C)Oc3ccc(NS(=O)(=O)c4cccs4)cc3C(=O)N([C@H](C)CO)C[C@H]2C)cc1 | 1.15 µM | 
36 | C[C@@H]1CCCCO[C@@H](CN(C)CC2CCCCC2)[C@H](C)CN([C@@H](C)CO)C(=O)c2cc(NC(=O)Nc3ccccc3)ccc2O1 | 0.357 µM | 
37 | Cc1c(Cc2ccccc2)c(=O)oc2cc(O)ccc12 |  | activity increase (activation) (at 11 µM (top of the series)): -39.3% (inactive)
38 | C[C@H](CO)N1C[C@H](C)[C@@H](CN(C)C)Oc2c(NC(=O)Nc3ccc(C(F)(F)F)cc3)cccc2C1=O | 0.762 µM | 
39 | C[C@@H]1CCCCO[C@@H](CN(C)Cc2ccc3c(c2)OCO3)[C@@H](C)CN([C@@H](C)CO)C(=O)c2cc(NS(=O)(=O)c3ccccc3)ccc2O1 | 0.563 µM | 
40 | CCCN(C)C[C@@H]1OCCCC[C@@H](C)Oc2ccc(NS(=O)(=O)c3ccc(F)cc3)cc2C(=O)N([C@H](C)CO)C[C@@H]1C | 3.88 µM | 
41 | COc1cc2cc(C(=O)N3CCN(Cc4ccc5c(c4)OCO5)CC3)c(=O)oc2cc1OC | 4.58 µM | 
42 | CCCc1cc(=O)oc2c(CN(CC)CC)c(O)c(Cl)cc12 |  | activity increase (activation) (at 11 µM (top of the series)): -58.6% (inactive)
43 | O=C(C[C@@H]1CC[C@@H]2[C@H](COC[C@H](O)CN2C(=O)Nc2cccc(Cl)c2)O1)N1CCCCC1 | 0.364 µM | 
44 | COc1cccc(CN(C)Cc2cc(=O)oc3cc(O)c(Cl)cc23)c1 | 2.9 µM | 
45 | C[C@@H]1CCCCO[C@H](CN(C)Cc2ccccc2)[C@H](C)CN([C@@H](C)CO)C(=O)c2cc(NS(=O)(=O)c3cccs3)ccc2O1 | 0.607 µM | 
46 | COc1ccc(NC(=O)Nc2ccc3c(c2)C(=O)N([C@H](C)CO)C[C@@H](C)[C@H](CN(C)Cc2ccc(C(=O)O)cc2)OCCCC[C@@H](C)O3)cc1 | 3.3 µM | 
47 | O=C(Nc1ccc(C(F)(F)F)cc1)N1[C@@H]2CNC[C@H]1C2c1ccc(-c2ccncc2)cc1 (some centres undefined) | 7.23 µM | 
48 | COc1ccc(CN(C)C[C@@H]2OCCCC[C@@H](C)Oc3ccc(NS(=O)(=O)c4cccs4)cc3C(=O)N([C@H](C)CO)C[C@@H]2C)cc1 | 0.161 µM | 
49 | CCCc1cc(=O)oc2c(CN3CCN(C)CC3)c(O)ccc12 |  | activity increase (activation) (at 5.6 µM (top of the series)): -44.3% (inactive)
50 | CCCN(C)C[C@@H]1OCCCC[C@@H](C)Oc2ccc(NS(=O)(=O)c3ccccc3)cc2C(=O)N([C@H](C)CO)C[C@@H]1C | 1.04 µM | 

Row | Compound | AC40 | other results
51 | CCCN(C)C[C@@H]1OCCCC[C@@H](C)Oc2ccc(NS(=O)(=O)c3ccc(C)cc3)cc2C(=O)N([C@@H](C)CO)C[C@@H]1C | 0.133 µM | 
52 | C[C@@H]1CCCCO[C@H](CN(C)Cc2ccc(C(=O)O)cc2)[C@@H](C)CN([C@H](C)CO)C(=O)c2cc(NC(=O)Nc3ccc(C(F)(F)F)cc3)ccc2O1 | < 0.16 µM | 
53 | O=C(O)c1ccccc1NS(=O)(=O)c1cccc(-n2sc3ccccc3c2=O)c1 |  | activity increase (activation) (at 11 µM (top of the series)): -98.6% (inactive)
54 | Cc1c(O)ccc2c(CN3CCN(Cc4ccccc4)CC3)cc(=O)oc12 | 4.1 µM | 
55 | O=C(CSc1cn[nH]n1)Nc1cccc(C(=O)O)c1 |  | activity increase (activation) (at 11 µM (top of the series)): -63.3% (inactive)
56 | Cc1noc(C)c1NC(=O)N(C)C[C@@H]1Oc2c(NC(=O)Nc3ccccc3)cccc2C(=O)N([C@H](C)CO)C[C@@H]1C | 6.45 µM | 
57 | Cc1noc(C)c1S(=O)(=O)Nc1ccc2c(c1)C(=O)N([C@H](C)CO)C[C@@H](C)[C@@H](CN(C)CC1CCCCC1)OCCCC[C@@H](C)O2 | 5.46 µM | 
58 | O=c1ccc2cc(O)c(O)cc2o1 |  | activity increase (activation) (at 11 µM (top of the series)): -53.9% (inactive)
59 | C[C@@H]1CCCCO[C@@H](CN(C)CC2CC2)[C@@H](C)CN([C@H](C)CO)C(=O)c2cc(NS(=O)(=O)c3ccc(Cl)cc3)ccc2O1 | 0.0973 µM | 
60 | C[C@H]1CN([C@@H](C)CO)C(=O)c2cccc(NC(=O)Nc3ccc4c(c3)OCO4)c2O[C@@H]1CN(C)CC1CC1 | 0.77 µM | 
61 | Cc1cc(=O)oc2c(CN3CCN(C)CC3)c(O)c(Cl)cc12 |  | activity increase (activation) (at 11 µM (top of the series)): -69.3% (inactive)
62 | C[C@@H]1CCCCO[C@@H](CN(C)C(=O)CCC(F)(F)F)[C@@H](C)CN([C@@H](C)CO)C(=O)c2cc(NS(=O)(=O)c3ccc(Cl)cc3)ccc2O1 | 0.191 µM | 
63 | C[C@@H]1CCCCO[C@H](CN(C)C)[C@H](C)CN([C@H](C)CO)C(=O)c2cc(NS(=O)(=O)c3ccc(Cl)cc3)ccc2O1 | 0.548 µM | 
64 | C[C@H](CO)N1C[C@H](C)[C@H](CN(C)Cc2ccc(C(=O)O)cc2)Oc2c(NC(=O)Nc3ccccc3)cccc2C1=O | 2.46 µM | 
65 | C[C@H]1CN([C@@H](C)CO)C(=O)c2cccc(NC(=O)Nc3ccc(C(F)(F)F)cc3)c2O[C@@H]1CN(C)C | 1.41 µM | 
66 | COc1ccc(C(=O)O)cc1S(=O)(=O)Nc1cc(C(F)(F)F)ccc1N1CCCCC1 | 0.246 µM | 
67 | Cc1cc(N(C)Cc2ccccc2)nc2cc(O)ccc12 |  | activity increase (activation) (at 11 µM (top of the series)): -54% (inactive)
68 | C[C@@H]1CCCCO[C@@H](CN(C)CC2CC2)[C@@H](C)CN([C@H](C)CO)C(=O)c2cc(NS(=O)(=O)c3cccs3)ccc2O1 | < 0.08 µM | 
69 | CO[C@@H]1CN(C)C(=O)c2ccc(NC(=O)Nc3cccc(Cl)c3)cc2OC[C@@H](C)NC[C@H]1C | 1.41 µM | 
70 | C[C@H](CO)N1C[C@H](C)[C@H](CN(C)Cc2ccncc2)Oc2c(NC(=O)Nc3ccc(C(F)(F)F)cc3)cccc2C1=O | 0.704 µM | 
71 | C[C@@H]1CCCCO[C@@H](CN(C)Cc2ccc3c(c2)OCO3)[C@@H](C)CN([C@H](C)CO)C(=O)c2cc(NS(=O)(=O)c3cccs3)ccc2O1 | < 0.08 µM | 
72 | O=S(=O)(c1ccc(N2CCC(c3ccc(Cl)cc3)=N2)cc1)N(CCO)CCO |  | activity increase (activation) (at 11 µM (top of the series)): -40.9% (inactive)
73 | C[C@H]1CN([C@@H](C)CO)C(=O)c2cccc(NC(=O)Nc3ccc(C(F)(F)F)cc3)c2O[C@@H]1CN(C)CC1CC1 | 0.541 µM | 
74 | Cc1cc2nc(-c3ccc[nH]c3=O)[nH]c2cc1C |  | activity increase (activation) (at 5.6 µM (top of the series)): -30.6% (inactive)
